Test results as given in patent US10633386B2, “BET protein degraders” (THE REGENTS OF THE UNIVERSITY OF MICHIGAN, priority 2016, dated 2020).

Assays:
MDA-MB-231 = assay: Cell growth inhibition (CellTiter-Glo), MDA-MB-231; type: cell-based, human; conditions: MDA-MB-231 cells, 4 days
Procedure: (§1) Cell growth inhibitory activity of representative BET bromodomain degraders was determined using CellTiter-Glo® Luminescent Cell Viability Assay. Cells were seeded in 384-well white opaque cell culture plates at a density of 2,000 cells/well with serially diluted compounds and incubated at 37° C. in an atmosphere of 95% air and 5% CO2 for 4 days. Cell viability was determined using the CellTiter-Glo® Luminescent Cell Viability Assay Kit (Promega, Madison, Wis.) according to the manufacture's instruction. Briefly, a volume of CellTiter-Glo® Reagent equal to the volume of cell culture medium was added to each well, and then the plates were incubated at room temperature for 10-20 minutes. The luminescent signal was measured using a Tecan Infinite M1000 multimode microplate reader (Tecan, Morrisville, N.C.). The half maximal inhibitory concentration (IC50) was calculated using the GraphPad Prism 5 software (GraphPad Software, La Jolla, Calif.).

MOLM-13 = assay: Cell growth inhibition (CellTiter-Glo), MOLM-13; type: cell-based; conditions: MOLM-13 cells, 4 days
Procedure: as §1

SMILES | IC50 (MDA-MB-231; Homo sapiens, MDA-MB-231, 96 h) [nM] | IC50 (MOLM-13; Homo sapiens, MOLM-13, 96 h) [nM] | IC50 (MOLM-13) [nM] | IC50 (MDA-MB-231) [nM]
CCn1nc(C2CC2)cc1Nc1nc(C(=O)NCCCCNC(=O)COc2cccc3c2C(=O)N(C2CCC(=O)NC2=O)C3=O)nc2[nH]c3cc(-c4c(C)noc4C)c(OC)cc3c12 (stereo not shown) [Cpd. No. 1] | 49.5 | 12.2 |  | 
CCn1nc(C2CC2)cc1Nc1nc(C(=O)NCCCOCCOCCOCCCNC(=O)COc2cccc3c2C(=O)N(C2CCC(=O)NC2=O)C3=O)nc2[nH]c3cc(-c4c(C)noc4C)c(OC)cc3c12 (stereo not shown) [Cpd. No. 2] | 75.6 | 16.3 |  | 
CCn1nc(C2CC2)cc1Nc1nc(C(=O)NCCCOCCOCCOCCCNC(=O)CNc2cccc3c2C(=O)N(C2CCC(=O)NC2=O)C3=O)nc2[nH]c3cc(-c4c(C)noc4C)c(OC)cc3c12 (stereo not shown) [Cpd. No. 3] | 94.8 | 18.2 |  | 
CCn1nc(C2CC2)cc1Nc1nc(C(=O)NCCOCCOCCOCCOc2cccc3c2C(=O)N(C2CCC(=O)NC2=O)C3=O)nc2[nH]c3cc(-c4c(C)noc4C)c(OC)cc3c12 (stereo not shown) [Cpd. No. 5] | 50 | 6.9 |  | 
CCn1nc(C2CC2)cc1Nc1nc(C(=O)NCCNc2cccc3c2C(=O)N(C2CCC(=O)NC2=O)C3=O)nc2[nH]c3cc(-c4c(C)noc4C)c(OC)cc3c12 (stereo not shown) [Cpd. No. 7] | 453 | 65 |  | 
CCn1nc(C2CC2)cc1Nc1nc(C(=O)NCCCNc2cccc3c2C(=O)N(C2CCC(=O)NC2=O)C3=O)nc2[nH]c3cc(-c4c(C)noc4C)c(OC)cc3c12 (stereo not shown) [Cpd. No. 8] | 57.6 | 6.3 |  | 
CCn1nc(C2CC2)cc1Nc1nc(C(=O)NCCOCCNc2cccc3c2C(=O)N(C2CCC(=O)NC2=O)C3=O)nc2[nH]c3cc(-c4c(C)noc4C)c(OC)cc3c12 (stereo not shown) [Cpd. No. 12] | 109 | 17.8 |  | 
CCn1nc(C2CC2)cc1Nc1nc(C(=O)NCCOCCOCCNc2cccc3c2C(=O)N(C2CCC(=O)NC2=O)C3=O)nc2[nH]c3cc(-c4c(C)noc4C)c(OC)cc3c12 (stereo not shown) [Cpd. No. 13] | 267 |  | 8 | 
CCn1nc(C2CC2)cc1Nc1nc(C(=O)NCCOCCCc2cccc3c2CN(C2CCC(=O)NC2=O)C3=O)nc2[nH]c3cc(-c4c(C)noc4C)c(OC)cc3c12 (stereo not shown) [Cpd. No. 59] | 24.4 | 0.64 |  | 
CCn1nc(C2CC2)cc1Nc1nc(C(=O)NCCCCCc2cccc3c2C(=O)N(C2CCC(=O)NC2=O)C3=O)nc2[nH]c3cc(-c4c(C)noc4C)c(OC)cc3c12 (stereo not shown) [Cpd. No. 60] | 11.2 | 1.2 |  | 
CCn1nc(C2CC2)cc1Nc1nc(C(=O)NCCOCCOCCOCCCc2cccc3c2C(=O)N(C2CCC(=O)NC2=O)C3=O)nc2[nH]c3cc(-c4c(C)noc4C)c(OC)cc3c12 (stereo not shown) [Cpd. No. 61] | 69.6 | 1.5 |  | 
CCn1nc(C2CC2)cc1Nc1nc(C(=O)NCCOCCCc2cccc3c2C(=O)N(C2CCC(=O)NC2=O)C3=O)nc2[nH]c3cc(-c4c(C)noc4C)c(OC)cc3c12 (stereo not shown) [Cpd. No. 62] | 24.7 | 3.4 |  | 
CCn1nc(C2CC2)cc1Nc1nc(C(=O)NCCOCCOCCC(=O)Nc2cccc3c2CN(C2CCC(=O)NC2=O)C3=O)nc2[nH]c3cc(-c4c(C)noc4C)c(OC)cc3c12 (stereo not shown) [Cpd. No. 63] | 231 | 41.5 |  | 
CCn1nc(C2CC2)cc1Nc1nc(C(=O)NCCOCCOCCOCCC(=O)Nc2cccc3c2CN(C2CCC(=O)NC2=O)C3=O)nc2[nH]c3cc(-c4c(C)noc4C)c(OC)cc3c12 (stereo not shown) [Cpd. No. 64] | 98.7 | 23.6 |  | 
CCn1nc(C2CC2)cc1Nc1nc(C(=O)NCCCCCNc2cccc3c2C(=O)N(C2CCC(=O)NC2=O)C3=O)nc2[nH]c3cc(-c4c(C)noc4C)c(OC)cc3c12 (stereo not shown) [compound 10] | 4.8 | 0.9 |  | 
CCn1nc(C2CC2)cc1Nc1nc(C(=O)NCCCCCCNc2cccc3c2C(=O)N(C2CCC(=O)NC2=O)C3=O)nc2[nH]c3cc(-c4c(C)noc4C)c(OC)cc3c12 (stereo not shown) [compound 11] | 8 | 1.6 |  | 
CCn1nc(C2CC2)cc1Nc1nc(C(=O)NCCOCCOCCOCCNc2cccc3c2C(=O)N(C2CCC(=O)NC2=O)C3=O)nc2[nH]c3cc(-c4c(C)noc4C)c(OC)cc3c12 (stereo not shown) [compound 14] | 33 | 1.2 |  | 
CCn1nc(C2CC2)cc1Nc1nc(C(=O)NCCCOCCCCOCCCNc2cccc3c2C(=O)N(C2CCC(=O)NC2=O)C3=O)nc2[nH]c3cc(-c4c(C)noc4C)c(OC)cc3c12 (stereo not shown) [compound 15] | 1.7 | 0.7 |  | 

SMILES | IC50 (MDA-MB-231; Homo sapiens, MDA-MB-231, 96 h) [nM] | IC50 (MOLM-13; Homo sapiens, MOLM-13, 96 h) [nM] | IC50 (MOLM-13) [nM] | IC50 (MDA-MB-231) [nM]
CCn1nc(C2CC2)cc1Nc1nc(C(=O)NCCOCCOCCOCCOCCOCCOCCOCCNc2cccc3c2C(=O)N(C2CCC(=O)NC2=O)C3=O)nc2[nH]c3cc(-c4c(C)noc4C)c(OC)cc3c12 (stereo not shown) [compound 16] | 128 | 10.2 |  | 
CCn1nc(C2CC2)cc1Nc1nc(CNCCCCNc2cccc3c2C(=O)N(C2CCC(=O)NC2=O)C3=O)nc2[nH]c3cc(-c4c(C)noc4C)c(OC)cc3c12 (stereo not shown) [compound 17] | 330 | 115 |  | 
CCn1nc(C2CC2)cc1Nc1nc(COCCCCNc2cccc3c2C(=O)N(C2CCC(=O)NC2=O)C3=O)nc2[nH]c3cc(-c4c(C)noc4C)c(OC)cc3c12 (stereo not shown) [compound 18] | 5.4 | 2.9 |  | 
CCn1nc(C2CC2)cc1Nc1nc(CNCCCCNc2cccc3c2CN(C2CCC(=O)NC2=O)C3=O)nc2[nH]c3cc(-c4c(C)noc4C)c(OC)cc3c12 (stereo not shown) [compound 19] | 1420 | 379 |  | 
CCn1nc(C2CC2)cc1Nc1nc(CNCCCOCCOCCOCCCNc2cccc3c2C(=O)N(C2CCC(=O)NC2=O)C3=O)nc2[nH]c3cc(-c4c(C)noc4C)c(OC)cc3c12 (stereo not shown) [compound 20] | 3.2 | 0.9 |  | 
CCn1nc(C2CC2)cc1Nc1nc(CNCCCOCCCCOCCCNc2cccc3c2C(=O)N(C2CCC(=O)NC2=O)C3=O)nc2[nH]c3cc(-c4c(C)noc4C)c(OC)cc3c12 (stereo not shown) [compound 21] | 543 | 84.6 |  | 
CCn1nc(C2CC2)cc1Nc1nc(C(=O)NCCOCCNc2cccc3c2CN(C2CCC(=O)NC2=O)C3=O)nc2[nH]c3cc(-c4c(C)noc4C)c(OC)cc3c12 (stereo not shown) [compound 22] | 63.8 | 12.4 |  | 
CCn1nc(C2CC2)cc1Nc1nc(C(=O)NCCOCCOCCNc2cccc3c2CN(C2CCC(=O)NC2=O)C3=O)nc2[nH]c3cc(-c4c(C)noc4C)c(OC)cc3c12 (stereo not shown) [compound 23] | 83.4 | 16.7 |  | 
CCn1nc(C2CC2)cc1Nc1nc(C(=O)NCCOCCOCCOCCNc2cccc3c2CN(C2CCC(=O)NC2=O)C3=O)nc2[nH]c3cc(-c4c(C)noc4C)c(OC)cc3c12 (stereo not shown) [compound 24] | 74.9 | 12.1 |  | 
CCn1nc(C2CC2)cc1Nc1nc(C(=O)NCCOCCOCCOCCOCCNc2cccc3c2CN(C2CCC(=O)NC2=O)C3=O)nc2[nH]c3cc(-c4c(C)noc4C)c(OC)cc3c12 (stereo not shown) [compound 25] | 25.1 | 3.5 |  | 
CCn1nc(C2CC2)cc1Nc1nc(C(=O)NCCOCCOCCNc2cccc3c2C(=O)N(C2CCC(=O)NC2=O)C3=O)nc2[nH]c3cc(-c4c(C)noc4C)c(OC)cc3c12 (stereo not shown) [compound 65] |  |  | 47.1 | 438
CCn1nc(C2CC2)cc1Nc1nc(C(=O)NCCCCNc2cccc3c2CN(C2CCC(=O)NC2=O)C3=O)nc2[nH]c3cc(-c4c(C)noc4C)c(OC)cc3c12 (stereo not shown) [compound 66] | 275 | 47.3 |  | 
CCn1nc(C2CC2)cc1Nc1nc(C(=O)NCCCOCCOCCOCCCNc2cccc3c2CN(C2CCC(=O)NC2=O)C3=O)nc2[nH]c3cc(-c4c(C)noc4C)c(OC)cc3c12 (stereo not shown) [compound 67] | 2 | 0.7 |  | 
CCn1nc(C2CC2)cc1Nc1nc(C(=O)NCCCOCCOCCOCCNc2cccc3c2CN(C2CCC(=O)NC2=O)C3=O)nc2[nH]c3cc(-c4c(C)noc4C)c(OC)cc3c12 (stereo not shown) [compound 68] | 4.1 | 1.2 |  | 
CCn1nc(C2CC2)cc1Nc1nc(C(=O)NCCCOCCOCCNc2cccc3c2CN(C2CCC(=O)NC2=O)C3=O)nc2[nH]c3cc(-c4c(C)noc4C)c(OC)cc3c12 (stereo not shown) [compound 69] | 16.1 | 2.9 |  | 
CCn1nc(C2CC2)cc1Nc1nc(C(=O)NCCOCCOCCOCCOCCCc2cccc3c2CN(C2CCC(=O)NC2=O)C3=O)nc2[nH]c3cc(-c4c(C)noc4C)c(OC)cc3c12 (stereo not shown) [compound 70] | 41 | 8.5 |  | 
CCn1nc(C2CC2)cc1Nc1nc(C(=O)NCCCOCCOCCOCC#Cc2cccc3c2CN(C2CCC(=O)NC2=O)C3=O)nc2[nH]c3cc(-c4c(C)noc4C)c(OC)cc3c12 (stereo not shown) [compound 72] | 4.2 | 1.2 |  | 
